{
  "source": "patent US10781160B1",
  "about": "“Hexadecyl Treprostinil crystals and methods for preparation thereof” (CHIROGATE INTERNATIONAL INC., priority 2019, dated 2020)",
  "format": "physicochemical",
  "description": "Moreover, the assay of Hexadecyl Treprostinil crystal Form I can be kept between about 98.0% to about 102.0% even after thirty-six months of placement under normal storage temperature (about 5° C. to about −20° C.). […] Moreover, the assay of Hexadecyl Treprostinil crystal Form II can be kept between about 98.0 to about 102.0% even after thirty-six months of placement under normal storage temperature (about 5° C. to about […]).",
  "data": [
    {"substance": "Hexadecyl Treprostinil [Hexadecyl Treprostinil crystal Form I]", "values": [
      {"measurement": "stability (other crystalline forms or degraded products of impurities)", "result": "no other crystalline forms or degraded products of impurities"}
    ]}
  ]
}
